Assay results published in US20150231238A1, “OVERCOMING RESISTANCE TO ERBB PATHWAY INHIBITORS” (MERRIMACK PHARMACEUTICALS, INC., priority 2011, published 2015).

How the values were obtained:
A2780cis cells = assay: Cell Titer Glo cell viability after cisplatin, resistant versus sensitive line; type: cell-based, human; settings: cisplatin 0.01 to 10 μM, 72 hours
Experimental: The A2780 human ovarian cancer cell line was originally established from tumor tissue from an untreated patient. The A2780cis cell line is cisplatin-resistant (Cat. #93112517, Sigma). […] A2780cis is cross-resistant to melphalan, adriamycin and irradiation.
Cell viability is measured using the Cell Titer Glo assay (Cat. # G7570, Promega) according to the manufacturer's instructions.
Cell viability was measured by the Cell Titer Glo assay which measures metabolically active cells by quantitating ATP.

pAKT in A2780 cells = assay: pAKT (ser473) western blot in cisplatin-sensitive cells; type: cell-based, human; settings: cisplatin 0.1 to 10 μM, especially after 24 hours and/or 10 μM
Experimental: (§1) After incubation cell lysates are prepared and analyzed for pAKT (ser473) (Cat #9271 Cell Signaling Technologies) by western blot.
(§2) The effect of MM-121 on the AKT pathway is determined by treating sensitive (A2780) and resistant (A2780cis) cells with a dose range of MM-121 ((0.01 to 1 μM) in vitro for 1, 4, 24 or 72 hours. After incubation cell lysates are prepared and analyzed for pAKT (ser473) (Cat. #9271 Cell Signaling Technologies) by western blot.
(§3) Cell lysates are analyzed by western blot for pAKT.

pAKT in A2780cis cells = assay: pAKT (ser473) western blot in cisplatin-resistant cells; type: cell-based, human; settings: cisplatin 0.1 to 10 μM or MM-121 0.01 to 1 μM, 1, 4, 24 or 72 hours
Experimental: as §1, §2, §3

[1] = system: ErbB3, Akt and ERK1/2 signaling in BT474-M3-GFP-HRG tumors; assay: Target and downstream signaling in BT474-M3-GFP-HRG tumor lysates (Luminex, western blot); type: in vivo, mice; settings: for activity in reducing pErbB3 levels with tumoral HRG expression: versus BT474-M3-GFP; for ratio of pERK and totERK levels / ratio of pErbB3 to total ErbB3 / ratio of phospho-Akt to total Akt: in the presence of HRG
Experimental: (§4) At the end of study (21 or 25 days after initiation of treatment for BT474-M3-GFP-HRG and BT474-M3-GFP, respectively) tumor samples were collected (24 h after the last MM-111 and 6 h after the last lapatinib dose) and analyzed for target and downstream signaling inhibition. Total and phosphorylated ErbB3 and Akt protein levels were analyzed from tumor lysates by suspension array technology (Luminex) and total and phosphorylated Erk1/2 levels by western blot using PCNA to normalize the results.

[2] = system: pAKT in heregulin-stimulated BT474-M3 cells; assay: Inhibition of AKT phosphorylation in heregulin-stimulated cells; type: cell-based; settings: dose range
BT474-M3 cells = assay: In vitro breast cancer model, viable cell count after 6 days; type: cell-based
NCI-N87 tumors = settings: paclitaxel 20 mpk q7d, trastuzumab 3.5 mpk q3d, MM-111 48 mpk q3d
Experimental: 7.5×10^6 NCI-N87 cells were implanted subcutaneously in the flanks of female Nu/Nu mice. When tumor volumes reached on average 341 mm^3 (on day 24 after tumor implantation) mice were segregated into 4 groups of 10 mice. […] Tumors were measured twice a week with a digital caliper.

BT474-M3-GFP-HRG tumors = assay: BT474-M3-GFP-HRG tumor xenograft growth; type: in vivo, mice; settings: Example 10; MM-111 48 mpk q3d i.p., tamoxifen 5 mg; versus BT474-M3-GFP
Experimental: 15×10^6 BT474-M3 cells engineered to express GFP (BT474-M3-GFP) or BT474-M3 cells engineered to express GFP and heregulin 1 (BT474-M3-GFP-HRG) were implanted in to the mammary fat pads of estrogen supplemented (0.72 mg 17β-estradiol in a 60-day slow release biodegradable carrier) female NCr/NU-mice (Taconic Farms, Inc). When tumor volumes reached on average 516 mm^3 (BT474-M3-GFP-HRG on day 17 after tumor implantation) or 422 mm^3 (BT474-M3-GFP on day 20 after tumor implantation), mice were segregated into 8 groups of 10-15 mice. Groups received either no treatment (Control), MM-111 (48 mpk q3d i.p. (dose every three days, intraperitoneally)), lapatinib (150 mpk qd p.o. (oral dose daily)), tamoxifen (5 mg free base tamoxifen in a 60-day slow release biodegradable carrier), MM-111 and lapatinib, MM-111 and tamoxifen, lapatinib and tamoxifen or MM-111, lapatinib and tamoxifen. Tumors were measured twice a week with a digital caliber.

[3] = system: BT474-M3 wild type cell spheroids; assay: Spheroid assay, parental cells; type: cell-based; settings: series dilution, six days
Experimental: (§5) Cells are cultured for six days. Spheroids are then examined by Nikon microscope and analyzed by MetaMorph® Image Analysis Software (Molecular Devices). The spheroid size from cells cultured in medium containing 10% FBS is set as a control.

[4] = system: ErbB3, Akt and ERK1/2 signaling in BT474-M3-GFP tumors; assay: Target and downstream signaling in BT474-M3-GFP tumor lysates (Luminex, western blot); type: in vivo, mice; settings: end of study tumor lysates
Experimental: as §4

[5] = system: BT474-M3 breast cancer xenograft; assay: BT474-M3 breast cancer xenograft model; type: in vivo, mice; settings: MM-111 3 mg/kg every 3 days, trastuzumab 1 mg/kg weekly
Experimental: BT474-M3 cells (2×10^7 cells per mice) are inoculated subcutaneously into Nu/Nu immunodeficient mice, which are implanted with an estrogen pellet (0.72 mg; 60-day release) one day before the experiment. […] Tumors are measured twice a week and the experiment is ended at day 40.

[6] = system: trastuzumab-resistant BT474-M3 cells; assay: Cell proliferation assay (WST-1), trastuzumab-resistant cells; type: cell-based; settings: series dilution, five days
Experimental: (§6) After five days of treatment, cell viability is measured by WST-1 (Roche, Cat. #5015944001) according to manufacturer's instructions. Cells treated with control (RPMI1640 with 10% FBS) are set as 100%, other treatments are expressed as percentage of the control.

[7] = system: trastuzumab-resistant BT474-M3 cell spheroids; assay: Spheroid assay, trastuzumab-resistant cells; type: cell-based
Experimental: as §5

[8] = system: BT474-M3 parental (wild-type) cells; assay: Cell proliferation assay (WST-1), parental cells; type: cell-based; settings: series dilution, five days
Experimental: as §6

[9] = system: EGFR wild-type NSCLC cell lines; assay: Spheroid assay (CellTiter Glo live cell density) in EGFR wild-type NSCLC cell lines; type: cell-based
Experimental: The cell lines bear no mutations within their EGFR genes and represent three distinct histological subtypes (see Table X below). Cells harboring Ras mutations are indicated.
Relative live cell densities were then determined using the CellTiter Glo® reagent (Promega).

[10] = system: heregulin-induced phosphorylation of ErbB3, AKT and ERK in ACHN, Du145 and OvCAR8 cells; assay: ELISA of heregulin-induced pErbB3, pAKT and pERK in cell lysates; type: cell-based
Experimental: In the first set of experiments, three cancer cell lines (ACHN (renal cell adenocarcinoma, ATCC® #CRL-1611™), Du145 (prostate carcinoma, ATCC® #HTB-81™) and OvCAR 8 (ovarian adenocarcinoma, ATCC® #HTB-161™) cell lines; obtained from the National Cancer Institute's Developmental Therapeutics Program) were seeded at 35,000 cells per well in 96-well plates and grown overnight (maintenance culture medium was RPMI-1640 media supplemented with 10% fetal calf serum, 2 mM L-glutamine, and Pen-Strep; cells were grown in a humidified atmosphere at 5% CO2, 95% air at 37° C.). Cells were synchronized by 20-24 hour serum starvation. The cells were then pre-incubated with 4-fold serial dilutions, ranging from […] to 7.6 pM, of MM-121 for 30 minutes. […]
For ELISA analysis of cell lysates, capture antibodies against ErbB1 (R&D Systems AF231), ErbB2 (R&D Systems, MAB1129), ErbB3 (R&D Systems, MAB 3481) and AKT (Upstate, 05-591 MG) were incubated in 384 well black flat-bottom polystyrene high-binding plates (Corning, 3708) overnight at room temperature. […] All ELISAs were visualized with SuperSignal® ELISA Pico Chemiluminescent Substrate (Pierce, Cat. #37069) and luminescent signal was measured using a luminometer.
Inhibitor IC50 values were calculated by least-squares fitting the dose response data with a sigmoidal curve (GraphPad Prism®, GraphPad Software, Inc., La Jolla, Calif.).

[11] = in the presence of 5 nM heregulin

N.N.[Cl][Pt][Cl] [cisplatin]
cell viability (percentage of media control), A2780cis versus A2780 (A2780cis cells): much greater viability | pAKT production (pAKT in A2780 cells): decrease in pAKT production | pAKT production (pAKT in A2780cis cells): no effect on pAKT production

CS(=O)(=O)CCNCc1ccc(-c2ccc3ncnc(Nc4ccc(OCc5cccc(F)c5)c(Cl)c4)c3c2)o1 [lapatinib, reference compound]
activity in reducing pErbB3 levels with tumoral HRG expression ([1]; end of study tumor lysates): decreased | ratio of pERK and totERK levels [1]: decreased effectiveness | ratio of pErbB3 to total ErbB3 [1]: effectiveness was reduced in the presence of HRG | ratio of phospho-Akt to total Akt [1]: decreased effectiveness | inhibition of AKT phosphorylation [2]: inhibited phosphorylation of AKT | inhibition of cell proliferation (BT474-M3 cells; basal conditions): 50% | inhibition of cell proliferation (BT474-M3 cells; [11]): 23%

CC(=O)O[C@H]1C(=O)[C@@]2(C)[C@H]([C@H](OC(=O)c3ccccc3)[C@]3(O)C[C@H](OC(=O)[C@H](O)[C@@H](NC(=O)c4ccccc4)c4ccccc4)C(C)=C1C3(C)C)[C@]1(OC(C)=O)CO[C@@H]1C[C@@H]2O [paclitaxel]
tumor growth (NCI-N87 tumors): only tumor stasis at best

CC/C(=C(\c1ccccc1)c1ccc(OCCN(C)C)cc1)c1ccccc1 [tamoxifen, reference compound]
effect of tumoral HRG overexpression on efficacy (tumor volume) (BT474-M3-GFP-HRG tumors): improved

MM-111: bispecific anti-ErbB3, anti-ErbB2 antibody, two scFvs in a Human Serum Albumin conjugate, SEQ ID NO:44
inhibition of spheroid growth [3]: significantly reduced spheroid growth | total ErbB3 expression ([1]; end of study tumor lysates): increased total ErbB3 expression | activity in reducing pErbB3 levels with tumoral HRG expression ([1]; end of study tumor lysates): increased effectiveness | ratio of pERK and totERK levels [1]: effective at reducing pERK production in the presence of HRG | ratio of pErbB3 to total ErbB3 [1]: decreased ErbB3 activity even in the presence of HRG | ratio of phospho-Akt to total Akt [1]: effective at reducing pAkt production in the presence of HRG | total ErbB3 expression [4]: increased total ErbB3 expression | completely regressed tumors [5]: no complete regressions were observed | inhibition of cell proliferation (BT474-M3 cells; basal conditions): 24% | inhibition of cell proliferation (BT474-M3 cells; [11]): 33% | inhibition of cell proliferation [6]: maintained similar inhibitory activity | inhibition of spheroid growth in combination with gefitinib ([7]; in the presence of 100 nM gefitinib): effective at inhibiting cell growth | inhibition of spheroid growth in combination with erlotinib ([7]; in the presence of 300 nM erlotinib): effective at inhibiting cell growth | inhibitory activity in trastuzumab-resistant cells compared with wild-type cells ([7]; spheroids): slightly improved | inhibition of spheroid growth ([7]; trastuzumab-resistant cells, series dilution, six days): significantly reduced spheroid growth | effect of tumoral HRG overexpression on efficacy (tumor volume) (BT474-M3-GFP-HRG tumors): modestly improved | inhibition of cell proliferation [8]: maintained similar inhibitory activity

B1: MM-121: fully human anti-ErbB3 antibody, VH and VL sequences SEQ ID NOs: 1 and 2 (antibody, V domains shown)
VH: EVQLLESGGGLVQPGGSLRLSCAASGFTFSHYVMAWVRQAPGKGLEWVSSISSSGGWTLYADSVKGRFTISRDNSKNTLYLQMNSLRAEDTAVYYCTRGLKMATIFDYWGQGTLVTVSS
VL: QSALTQPASVSGSPGQSITISCTGTSSDVGSYNVVSWYQQHPGKAPKLIIYEVSQRPSGVSNRFSGSKSGNTASLTISGLQTEDEADYYCCSYAGSSIFVIFGGGTKVTVL
effect on sensitivity of spheroids to erlotinib, dose range ([9]; 1 μM MM-121 added to erlotinib 0 to 10 μM, 10 nM HRG, all eight cell lines): restore sensitivity of the spheroids to erlotinib | effect on sensitivity of the cells to erlotinib ([9]; MM-121 1 μM with erlotinib 1 μM, HRG-stimulated cells, all five cell lines): greatly improve sensitivity of the cells to erlotinib | inhibition of HRG-induced ErbB3, AKT and ERK phosphorylation ([10]; MM-121 2 mM to 7.6 pM pre-incubated 30 minutes, 25 nM heregulin 10 minutes, versus HRG control): inhibits HRG-induced ErbB3, AKT and ERK phosphorylation | maximal inhibition of pErbB3, pAKT and pERK relative to unstimulated control ([10]; in most cases): near or below basal signaling levels | pAKT production (pAKT in A2780cis cells): gradual decrease in pAKT production at all dose levels
